# According to publication PMC10529594, “Strasseriolides display in vitro and in vivo activity against trypanosomal parasites and cause morphological and size defects in Trypanosoma cruzi” (PLOS Neglected Tropical Diseases, 2023):
# Values joined by “and” are separate entries in the source; they are usually repeats but may differ in a detail not shown here. Equal values may be shown once. Read-outs that look alike come from different tables or passages of the source.
# Columns and labels:
# [1] = design: method as in PMID 34865639; conditions: murine model, cited from earlier work
# T. cruzi epimastigotes [2] = assay: Microscopy analysis of T. cruzi epimastigotes (DAPI cell cycle, DIC morphology); type: cell-based, Trypanosoma cruzi; conditions: for % Cells 0N1K, Average / % Cells 1N1K1F, Average / % Cells 1N*1K*1F, Average / % Cells 1N*2K2F, Average / % Cells 2N1K, Average / % Cells 2N2K2F, Average / % Cells Other, Average / % Cells 0N1K, individual replicates / % Cells 1N1K1F, individual replicates / % Cells 1N*1K*1F, individual replicates / % Cells 1N*2K2F, individual replicates / % Cells 2N1K, individual replicates / % Cells 2N2K2F, individual replicates / % Cells Other, individual replicates: 72-hour drug exposure, DAPI staining
# Description: For morphological phenotypic analysis and further confirmation of cell cycle analysis by FACS, T. cruzi epimastigotes were grown for 72 hours in a 6-well plate in the presence and absence of drugs. Briefly, 1 × 10^6 parasites of each condition were harvested and fixed in 4% p-formaldehyde at 4°C for 20 minutes, washed twice with cold PBS, and placed on poly-L-lysine-coated slides. Followed by dehydration in methanol, parasite samples were stained and mounted with DAPI Prolong. Digital images were acquired with a Leica DMi8 microscope in Tile Scan mode with […] excitation to quantify DAPI stained nuclei and kinetoplasts of the parasite population. Transmitted light microscopy was used to acquire differential interference contrast (DIC) images (> 80 individual cells in each of two independent experiments).
# [3] = design: method as in PMID 34865639; conditions: cited from earlier work
# T. cruzi epimastigotes [4] = assay: Quantification of ATP intracellular levels (CellTiter-Glo); type: cell-based, Trypanosoma cruzi; conditions: for ATP content, individual replicates: single replicates
# Description: ATP was determined using the CellTiter-Glo assay. Optimum readout conditions and linearity of the assay were established for T. cruzi epimastigotes by testing different cell densities. The assay was linear up to 100,000 cells (in 90 μl) per well. 50,000 cells (from log phase cultures) per well were dispensed into 96-well white flat bottom microplates containing 10 μl of strasseriolide C at concentrations ranging from 0.4 to 6.25 μM and grown at 28°C for 72 hours with orbital shaking. ATP standard curves were obtained using concentrations ranging from 0.1 to 100 pmol of ATP disodium salt in 90 μl of LIT medium per well. Both samples and standards were assayed in triplicate. 70 μL of CellTiter-Glo solution were added to treated and control parasites and to the standard curve wells, and luminescence detection was recorded after 15 minutes incubation in a Tecan Infinite 200 microplate reader.
# To determine if ATP production was affected by these compounds, we measured intracellular levels in T. cruzi epimastigotes. After 72-hour treatment with strasseriolide C at doses ranging from 0.4 to 6.25 μM, 70 μl of Cell-Titer Glo reagent were added with a multichannel pipette. Plates were incubated at 28°C for 10 minutes, after which luminescence was recorded. Luminescence relative light unit (RLU) values were interpolated in the ATP calibration curve (S4A Fig) and pmol of ATP per well were quantified. Considering proliferation inhibition due to strasseriolide C activity, values were normalized with respect to the number of parasites as determined by counting in a Neubauer chamber using phase contrast microscopy.
structure (smiles),measurement,setting,value
"C/C1=C\[C@H](C)CC[C@@H](O)/C(C)=C/[C@H](C)C[C@@H](C)CC[C@@H]([C@@H](C)C(=O)O)OC(=O)[C@@H](C)C1 [Strasseriolide B, strasseriolide B]",toxicity in vivo,[1]; listed as B,toxic in vivo
same,toxicity in vivo,[1]; listed as strasseriolide B,toxic
"C/C1=C\[C@H](C)C(=O)C[C@@H](O)/C(C)=C/[C@H](C)C[C@@H](C)CC[C@@H]([C@@H](C)C(=O)O)OC(=O)[C@@H](C)C1 [Strasseriolide C, strasseriolide C]","% Cells 0N1K, Average","T. cruzi epimastigotes [2]; EC30, average",0.9709%
same,"% Cells 1N1K1F, Average","T. cruzi epimastigotes [2]; EC30, average",66.0194%
same,"% Cells 1N*1K*1F, Average","T. cruzi epimastigotes [2]; EC30, average",4.854%
same,"% Cells 1N*2K2F, Average","T. cruzi epimastigotes [2]; EC30, average",2.913%
same,"% Cells 2N1K, Average","T. cruzi epimastigotes [2]; EC30, average",4.854%
same,"% Cells 2N2K2F, Average","T. cruzi epimastigotes [2]; EC30, average",19.4175%
same,"% Cells Other, Average","T. cruzi epimastigotes [2]; EC30, average",0.9709%
same,"% Cells 0N1K, individual replicates","T. cruzi epimastigotes [2]; EC30, single replicates",0.9709%
same,"% Cells 1N1K1F, individual replicates","T. cruzi epimastigotes [2]; EC30, single replicates",70.8738% and 61.165%
same,"% Cells 1N*1K*1F, individual replicates","T. cruzi epimastigotes [2]; EC30, single replicates",4.854%
same,"% Cells 1N*2K2F, individual replicates","T. cruzi epimastigotes [2]; EC30, single replicates",2.913%
same,"% Cells 2N1K, individual replicates","T. cruzi epimastigotes [2]; EC30, single replicates",6.796% and 2.913%
same,"% Cells 2N2K2F, individual replicates","T. cruzi epimastigotes [2]; EC30, single replicates",13.5922% and 25.2427%
same,"% Cells Other, individual replicates","T. cruzi epimastigotes [2]; EC30, single replicates",0% and 1.942%
same,"% Cells 0N1K, Average","T. cruzi epimastigotes [2]; EC70, average",3.4269%
same,"% Cells 1N1K1F, Average","T. cruzi epimastigotes [2]; EC70, average",57.8968%
same,"% Cells 1N*1K*1F, Average","T. cruzi epimastigotes [2]; EC70, average",5.388%
same,"% Cells 1N*2K2F, Average","T. cruzi epimastigotes [2]; EC70, average",3.4269%
same,"% Cells 2N1K, Average","T. cruzi epimastigotes [2]; EC70, average",2.951%
same,"% Cells 2N2K2F, Average","T. cruzi epimastigotes [2]; EC70, average",24.9207%
same,"% Cells Other, Average","T. cruzi epimastigotes [2]; EC70, average",2.961%
same,"% Cells 0N1K, individual replicates","T. cruzi epimastigotes [2]; EC70, single replicates",2.9703% and 3.8835%
same,"% Cells 1N1K1F, individual replicates","T. cruzi epimastigotes [2]; EC70, single replicates",63.3663% and 52.4272%
same,"% Cells 1N*1K*1F, individual replicates","T. cruzi epimastigotes [2]; EC70, single replicates",4.9505% and 5.825%
same,"% Cells 1N*2K2F, individual replicates","T. cruzi epimastigotes [2]; EC70, single replicates",2.9703% and 3.8835%
same,"% Cells 2N1K, individual replicates","T. cruzi epimastigotes [2]; EC70, single replicates",3.9604% and 1.942%
same,"% Cells 2N2K2F, individual replicates","T. cruzi epimastigotes [2]; EC70, single replicates",16.8317% and 33.0097%
same,"% Cells Other, individual replicates","T. cruzi epimastigotes [2]; EC70, single replicates",4.9505% and 0.9709%
same,morphological changes (DIC microscopy),"T. cruzi epimastigotes [2]; 72 h, at EC70",smaller and rounded parasites
same,liver microsome clearance,[3],medium
same,"ATP content, Average (pmol ATP/cell)",T. cruzi epimastigotes [4]; 0.390625 µM,1.759e-5 pmol ATP/cell
same,"ATP content, individual replicates",T. cruzi epimastigotes [4]; 0.390625 µM,1.792e-5 pmol ATP/cell and 1.833e-5 pmol ATP/cell and 1.6509e-5 pmol ATP/cell
same,"ATP content, Average (pmol ATP/cell)",T. cruzi epimastigotes [4]; 0.78125 µM,1.732e-5 pmol ATP/cell
same,"ATP content, individual replicates",T. cruzi epimastigotes [4]; 0.78125 µM,1.756e-5 pmol ATP/cell and 1.79e-5 pmol ATP/cell and 1.649e-5 pmol ATP/cell
same,"ATP content, Average (pmol ATP/cell)",T. cruzi epimastigotes [4]; 1.5625 µM,1.679e-5 pmol ATP/cell
same,"ATP content, individual replicates",T. cruzi epimastigotes [4]; 1.5625 µM,1.677e-5 pmol ATP/cell and 1.743e-5 pmol ATP/cell and 1.6178e-5 pmol ATP/cell
same,"ATP content, Average (pmol ATP/cell)",T. cruzi epimastigotes [4]; 3.125 µM,1.67e-5 pmol ATP/cell
same,"ATP content, individual replicates",T. cruzi epimastigotes [4]; 3.125 µM,1.693e-5 pmol ATP/cell and 1.736e-5 pmol ATP/cell and 1.58e-5 pmol ATP/cell
same,"ATP content, Average (pmol ATP/cell)",T. cruzi epimastigotes [4]; 6.25 µM,1.53e-5 pmol ATP/cell
same,"ATP content, individual replicates",T. cruzi epimastigotes [4]; 6.25 µM,1.501e-5 pmol ATP/cell and 1.61e-5 pmol ATP/cell and 1.48e-5 pmol ATP/cell
same,cellular ATP pool,"T. cruzi epimastigotes [4]; epimastigotes, 72 h, 0.4 to 6.25 μM, normalized to parasite number",discrete reduction
"C/C1=C\[C@H](C)[C@@H](O)C[C@@H](O)/C(C)=C/[C@H](C)C[C@@H](C)CC[C@@H]([C@@H](C)C(=O)O)OC(=O)[C@@H](C)C1 [Strasseriolide D, strasseriolide D]","% Cells 0N1K, Average","T. cruzi epimastigotes [2]; EC30, average",1.2%
same,"% Cells 1N1K1F, Average","T. cruzi epimastigotes [2]; EC30, average",57.325%
same,"% Cells 1N*1K*1F, Average","T. cruzi epimastigotes [2]; EC30, average",6.55%
same,"% Cells 1N*2K2F, Average","T. cruzi epimastigotes [2]; EC30, average",2.85%
same,"% Cells 2N1K, Average","T. cruzi epimastigotes [2]; EC30, average",4.5%
same,"% Cells 2N2K2F, Average","T. cruzi epimastigotes [2]; EC30, average",26.325%
same,"% Cells Other, Average","T. cruzi epimastigotes [2]; EC30, average",1.25%
same,"% Cells 0N1K, individual replicates","T. cruzi epimastigotes [2]; EC30, single replicates",0% and 2.4%
same,"% Cells 1N1K1F, individual replicates","T. cruzi epimastigotes [2]; EC30, single replicates",56.25% and 58.4%
same,"% Cells 1N*1K*1F, individual replicates","T. cruzi epimastigotes [2]; EC30, single replicates",7.5% and 5.6%
same,"% Cells 1N*2K2F, individual replicates","T. cruzi epimastigotes [2]; EC30, single replicates",2.5% and 3.2%
same,"% Cells 2N1K, individual replicates","T. cruzi epimastigotes [2]; EC30, single replicates",5% and 4%
same,"% Cells 2N2K2F, individual replicates","T. cruzi epimastigotes [2]; EC30, single replicates",26.25% and 26.4%
same,"% Cells Other, individual replicates","T. cruzi epimastigotes [2]; EC30, single replicates",2.5% and 0%
same,"% Cells 0N1K, Average","T. cruzi epimastigotes [2]; EC70, average",0.4587%
same,"% Cells 1N1K1F, Average","T. cruzi epimastigotes [2]; EC70, average",62.2955%
same,"% Cells 1N*1K*1F, Average","T. cruzi epimastigotes [2]; EC70, average",3.438%
same,"% Cells 1N*2K2F, Average","T. cruzi epimastigotes [2]; EC70, average",5.902%
same,"% Cells 2N1K, Average","T. cruzi epimastigotes [2]; EC70, average",3.953%
same,"% Cells 2N2K2F, Average","T. cruzi epimastigotes [2]; EC70, average",19.5971%
same,"% Cells Other, Average","T. cruzi epimastigotes [2]; EC70, average",4.355%
same,"% Cells 0N1K, individual replicates","T. cruzi epimastigotes [2]; EC70, single replicates",0% and 0.9174%
same,"% Cells 1N1K1F, individual replicates","T. cruzi epimastigotes [2]; EC70, single replicates",56.701% and 67.8899%
same,"% Cells 1N*1K*1F, individual replicates","T. cruzi epimastigotes [2]; EC70, single replicates",4.124% and 2.752%
same,"% Cells 1N*2K2F, individual replicates","T. cruzi epimastigotes [2]; EC70, single replicates",7.216% and 4.587%
same,"% Cells 2N1K, individual replicates","T. cruzi epimastigotes [2]; EC70, single replicates",5.155% and 2.752%
same,"% Cells 2N2K2F, individual replicates","T. cruzi epimastigotes [2]; EC70, single replicates",22.6804% and 16.5138%
same,"% Cells Other, individual replicates","T. cruzi epimastigotes [2]; EC70, single replicates",4.124% and 4.587%
same,liver microsome clearance,[3],low
